Reference: the NIST ThermoML archive (doi:10.1021/je300835h)
Numbers after ± are expanded uncertainties.

Conditions: Liquid, Ebulliometric method (Recirculating still)

CCCCO [butan-1-ol]
vapor or sublimation pressure (390.65 K): 101.3 ± 1 kPa

CO [methanol]
vapor or sublimation pressure (337.75 K): 101.3 ± 1 kPa

C=COC(C)=O [vinyl acetate]
vapor or sublimation pressure (345.75 K): 101.3 ± 1 kPa
